Measured values from patent US20250177362A1, “HETEROCYCLIC GLP-1 AGONISTS” (Gasherbrum Bio, Inc., priority 2022, published 2025).

Molecular target: T1, GLP-1 Receptor (Homo sapiens, UniProt P43220)
T1 construct: host or cells: HEK293/CRE-Luc (HEK293/GLPIR/CRE-LUC)
Assay: GLP-1R agonist cAMP stimulation assay
Assay type: cell-based
Conditions: HEK293/CRE-Luc cell line stably expressing the GLP-1 Receptor; 30 min incubation; cAMP dynamic 2 Kit (Cisbio)
Description: Activation of GLP-1 receptor is known to stimulate cyclic AMP (cAMP) production in cells which indicates primary coupling to the Gas subunit of the G protein heterotrimeric complex.
To optimize functional activity directed toward Gas coupling, a HEK293/CRE-Luc cell line developed by HDB stably expressing the GLP-1 Receptor was used. 200× concentration of compound working solutions were prepared (Agilent Technologies Bravo) with ½ log serial dilution in 384-well Echo LDV plate (Labcyte, Cat #LP-0200). 50 nL/well 200× concentration of compound working solutions were moved to 384-well white low volume plate (Greiner, Cat #784075) using Labcyte ECHO550. 1×10^5 cells/mL HEK293/GLPIR/CRE-LUC (HD Biosciences) cell suspensions prepared with assay buffer [DPBS containing 0.5 mM IBMX (Sigma, Cat #15879) and 0.10% BSA (GENVIEW, Cat #FA016-100g)], 10 μL cell suspensions were added to each well of previous generated assay plate which already contains 50 nL compound at 200× concentration using ThermoFisher Multidrop Combi (1000 cells/well). Seal the plate and incubate at 37° C. with 5% CO2 for 30 min.
After incubation the cAMP assay signal was generated using cAMP dynamic 2 Kit (Cisbio). 5 μL cAMP-d2 working solution was added to each well, followed with 5 μL Anti-cAMP antibody-cryptate working solution added to each well using ThermoFisher Multidrop Combi. Incubate at room temperature for 1 hour protected from light. Read the fluorescence at 665 and 615 nm with Reader PerkinElmer EnVision.

T1 sequence (P43220 24-463, species assumed): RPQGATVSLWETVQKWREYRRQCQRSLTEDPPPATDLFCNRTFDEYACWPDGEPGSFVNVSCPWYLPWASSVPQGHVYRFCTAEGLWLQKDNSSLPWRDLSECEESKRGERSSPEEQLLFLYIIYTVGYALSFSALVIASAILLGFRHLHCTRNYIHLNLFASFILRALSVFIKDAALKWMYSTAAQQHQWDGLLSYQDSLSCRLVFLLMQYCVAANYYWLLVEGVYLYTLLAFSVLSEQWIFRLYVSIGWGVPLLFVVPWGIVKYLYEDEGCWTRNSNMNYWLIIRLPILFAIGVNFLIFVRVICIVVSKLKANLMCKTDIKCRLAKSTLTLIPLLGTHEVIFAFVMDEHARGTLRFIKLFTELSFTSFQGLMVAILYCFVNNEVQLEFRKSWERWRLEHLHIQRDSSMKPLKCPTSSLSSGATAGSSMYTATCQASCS

EC50	SMILES
1 to 100 nM	C[C@]1(c2ccc(Cl)cc2F)Oc2cccc(C3CCN(Cc4ncc(-c5nnc(C(F)(F)F)[nH]5)cc4NC4CCCC4)CC3)c2O1 [F-11, (S)-2-((4-(2-(4-chloro-2-fluorophenyl)-2-methylbenzo[d][1,3]dioxol-4-yl)piperidin-1-yl)methyl)-N-cyclopentyl-5-(5-(trifluoromethyl)-4H-1,2,4-triazol-3-yl)pyridin-3-amine]
1 to 100 nM	CC1(c2ccc(Cl)cc2F)Oc2cccc(C3CCN(Cc4ncc(-c5nnc(C(F)(F)F)[nH]5)cc4OC4CCCC4)CC3)c2O1 (stereo not shown) [F-12, 2-((4-(2-(4-chloro-2-fluorophenyl)-2-methylbenzo[d][1,3]dioxol-4-yl)piperidin-1-yl)methyl)-3-(cyclopentyloxy)-5-(5-(trifluoromethyl)-4H-1,2,4-triazol-3-yl)pyridine]
1 to 100 nM	CC1(C#N)CCN(c2cc(-c3nnc(C(F)(F)F)[nH]3)cnc2CN2CCC(c3cccc4c3O[C@@](C)(c3ccc(Cl)cc3F)O4)CC2)C1 (stereo partly drawn) [F-13, 1-(2-((4-((S)-2-(4-chloro-2-fluorophenyl)-2-methylbenzo[d][1,3]dioxol-4-yl)piperidin-1-yl)methyl)-5-(5-(trifluoromethyl)-4H-1,2,4-triazol-3-yl)pyridin-3-yl)-3-methylpyrrolidine-3-carbonitrile]
1 to 100 nM	CC1(c2ccc(Cl)cc2F)Oc2cccc(C3CCN(Cc4ncc(-c5nnn[nH]5)cc4C4CC4)CC3)c2O1 (stereo not shown) [F-14, 2-((4-(2-(4-chloro-2-fluorophenyl)-2-methylbenzo[d][1,3]dioxol-4-yl)piperidin-1-yl)methyl)-3-cyclopropyl-5-(1H-tetrazol-5-yl)pyridine]
1 to 100 nM	C[C@]1(c2ccc(Cl)cc2F)Oc2cccc(C3CCN(Cc4nnc(-c5nnc(C(F)(F)F)[nH]5)cc4N4CCC(O)C4)CC3)c2O1 (stereo partly drawn) [F-15, 1-(3-((4-((S)-2-(4-chloro-2-fluorophenyl)-2-methylbenzo[d][1,3]dioxol-4-yl)piperidin-1-yl)methyl)-6-(5-(trifluoromethyl)-4H-1,2,4-triazol-3-yl)pyridazin-4-yl)pyrrolidin-3-ol]
1 to 100 nM	C[C@]1(c2ccc(Cl)cc2F)Oc2cccc(C3CCN(Cc4ncc(-c5nnc(C(F)(F)F)[nH]5)cc4CS(=O)(=O)C4CC4)CC3)c2O1 [F-16]
1 to 100 nM	CC1CN(c2cc(-c3nnc(C(F)(F)F)[nH]3)nnc2CN2CCC(c3cccc4c3O[C@@](C)(c3ccc(Cl)cc3F)O4)CC2)CCO1 (stereo partly drawn) [F-17, 4-(3-((4-((S)-2-(4-chloro-2-fluorophenyl)-2-methylbenzo[d][1,3]dioxol-4-yl)piperidin-1-yl)methyl)-6-(5-(trifluoromethyl)-4H-1,2,4-triazol-3-yl)pyridazin-4-yl)-2-methylmorpholine]
1 to 100 nM	CC1(C#N)CN(c2cc(-c3nnc(C(F)(F)F)[nH]3)cnc2CN2CCC(c3cccc4c3O[C@@](C)(c3ccc(Cl)cc3F)O4)CC2)C1 [F-18, (S)-1-(2-((4-(2-(4-chloro-2-fluorophenyl)-2-methylbenzo[d][1,3]dioxol-4-yl)piperidin-1-yl)methyl)-5-(5-(trifluoromethyl)-4H-1,2,4-triazol-3-yl)pyridin-3-yl)-3-methylazetidine-3-carbonitrile]
> 100 nM	C[C@]1(c2ccc(Cl)cc2F)Oc2cccc(C3CCN(Cc4ncc(-c5nnc(C(F)(F)F)[nH]5)cc4C4COC4)CC3)c2O1 [F-19]
> 100 nM	COc1cc(-c2nnn[nH]2)cnc1CN1CCC(c2cccc3c2OC(C)(c2ccc(Cl)cc2F)O3)CC1 (stereo not shown) [F-20, 2-((4-(2-(4-chloro-2-fluorophenyl)-2-methylbenzo[d][1,3]dioxol-4-yl)piperidin-1-yl)methyl)-3-methoxy-5-(1H-tetrazol-5-yl)pyridine]
